Results as given in patent US20080312164A1 (priority 2006, published 2008).
Where two headings read alike, the source gives them in different places. Marks after values point to notes of the source that are not given here.

Legend:
[1] = test system: NmuMG mouse mammary normal epithelial cells; assay: Cell Titer-Glo cytotoxicity assay, NmuMG; format: cell-based; details: for IC50: Mus musculus, Epithelial cell, 72 h
Source text: (§1) Five serial 1:2 dilutions were made with anhydrous DMSO at 100× the final concentration used in the assay.

[2] = test system: NmuMG mouse mammary normal epithelial cells; assay: Calcein AM cytotoxicity assay, NmuMG; format: cell-based; details: Epithelial cell, 72 h
Source text: as §1

[3] = test system: SK-OV-3 cells; assay: Calcein AM cytotoxicity assay, SK-OV-3; format: cell-based; details: Homo sapiens
Source text: as §1

[4] = test system: NCI/ADR RES cells; assay: Calcein AM cytotoxicity assay, NCI/ADR-RES; format: cell-based; details: Homo sapiens, 72 h
Source text: as §1

[5] = test system: SF-268 cells; assay: Calcein AM cytotoxicity assay, SF-268; format: cell-based; details: Homo sapiens
Source text: as §1

[6] = test system: MCF7 cells; assay: Calcein AM cytotoxicity assay, MCF7; format: cell-based; details: Homo sapiens
Source text: as §1

[7] = test system: SK-OV-3 cells; assay: Cell Titer-Glo cytotoxicity assay, SK-OV-3; format: cell-based; details: Homo sapiens
Source text: as §1

[8] = test system: Hep3B cells; assay: Calcein AM cytotoxicity assay, Hep3B; format: cell-based; details: Homo sapiens, 72 h
Source text: as §1

[9] = test system: HCT-116 cells; assay: Calcein AM cytotoxicity assay, HCT-116; format: cell-based; details: Homo sapiens
Source text: as §1

[10] = test system: SF-268 cells; assay: Cell Titer-Glo cytotoxicity assay, SF-268; format: cell-based; details: Homo sapiens
Source text: as §1

[11] = test system: human cancer cell lines; assay: Cytotoxicity across the panel of human cancer cell lines (average, high-throughput assays); format: cell-based; details: for IC50: read-out: Cancerous Average IC50 / Average IC50 in Cancer Cell Lines
Source text: as §1

[12] = test system: Du145 cells; assay: Cell Titer-Glo cytotoxicity assay, Du145; format: cell-based; details: Homo sapiens
Source text: as §1

[13] = test system: Du145 cells; assay: Calcein AM cytotoxicity assay, Du145; format: cell-based; details: Homo sapiens
Source text: as §1

[14] = test system: NCI-H460 cells; assay: Calcein AM cytotoxicity assay, NCI-H460; format: cell-based; details: Homo sapiens
Source text: as §1

[15] = test system: MCF7 cells; assay: Cell Titer-Glo cytotoxicity assay, MCF7; format: cell-based, human; details: Homo sapiens
Source text: as §1

[16] = test system: HT-29 cells; assay: MTT cytotoxicity assay, HT-29; format: cell-based; details: Homo sapiens
Source text: The IC50 value for each library member represents at least twelve replicates of dose-response experiments conducted over five concentrations. […] In this assay, live cells were distinguished by the intracellular enzymatic activity that converts the cell-permeable molecule MTT to strongly colored formazan crystals, which are retained within live cells and absorb light at 570 nm.
MTT Cytotoxicity Assay. HT-29 cell lines were maintained in RPMI medium 1640 supplemented with 10% (wt/vol) FBS and 1% penicillin-streptomycin (PS) (100 units/mL and 100 μg/mL). Cells were harvested by trypsinization using 0.25% trypsin and 0.1% EDTA and plated at a density of 2,000-5,000 cells per well of each 96-well microtiter plate. Cells were grown for 24 h at 37° C., with 5% CO2/95% air in a humidified incubator to allow cell attachment to occur before compound addition. Library members were stored at −20° C. under desiccating conditions before the assay. Library member stocks (1000×) were prepared in falcon tubes (BD Biosciences). Five dilutions were made with DMSO at 1000× the final concentration used in the assay. The 1000× stocks (3 μL) were diluted with complete culture medium (3 mL). Each plate contained twelve replicates of cells treated with 0.1% DMSO in complete cell culture medium that served as an individual negative control. Library member stocks (1×, 200 μL) were added to aspirated cells and replicated twelve times on each plate. Cells were incubated with the library members for 24 h before optical density reading. Test plates were removed from the incubator and washed once in sterile PBS to remove serum containing library members. Freshly-made 10×MTT solution in sterile PBS (5 mg/mL) was diluted 1:10 in serum-free culture medium and was sterilized using a 0.2 μm filter. Diluted MTT solution (1×, 50 μL) was added to each well and the plates were incubated in the dark for 2 h. Test plates were centrifuged at 1800×g for 5 min at 4° C. using a Beckman GPR centrifuge. MTT solution was removed by aspiration and 100 μL DMSO was added to each well to lyse cells and solubilize formazan crystals. Test plates were incubated in the dark at room temperature for 10 min. Plates were read for optical density at 570 nm.
IC50 Calculations. For each library member, at least three dose-response experiments were conducted on separate plates. […] To calculate IC50, percent inhibitions were plotted as a function of log[concentration] and then fit to a four-parameter logistic model that allowed for a variable Hill slope by using XLFIT 4.1 (ID Business Solutions, Emeryville, Calif.).

[17] = test system: NCI/ADR RES cells; assay: Cell Titer-Glo cytotoxicity assay, NCI/ADR-RES; format: cell-based, human; details: for IC50: Homo sapiens, NCI/ADR-RES, 72 h
Source text: as §1

[18] = test system: Hep3B cells; assay: Cell Titer-Glo cytotoxicity assay, Hep3B; format: cell-based; details: Homo sapiens, 72 h
Source text: as §1

[19] = test system: NCI-H460 cells; assay: Cell Titer-Glo cytotoxicity assay, NCI-H460; format: cell-based, human; details: Homo sapiens
Source text: as §1

[20] = test system: HCT-116 cells; assay: Cell Titer-Glo cytotoxicity assay, HCT-116; format: cell-based; details: Homo sapiens
Source text: as §1

[21] = NmuMG, Cell Titer-Glo, read-out: IC50
[22] = NmuMG, Calcein AM, read-out: IC50
[23] = SK-OV-3, Calcein AM, 72 h, read-out: IC50
[24] = SF-268, Calcein AM, 72 h, read-out: IC50
[25] = MCF7, Calcein AM, 72 h, read-out: IC50
[26] = SK-OV-3, Cell Titer-Glo, 72 h, read-out: IC50
[27] = HCT-116, Calcein AM, 72 h, read-out: IC50
[28] = SF-268, Cell Titer-Glo, 72 h, read-out: IC50
[29] = average across eight human cancer cell lines, MTT (HT-29) values excluded
[30] = DU-145, Du145, Cell Titer-Glo, 72 h, read-out: IC50
[31] = DU-145, Du145, Calcein AM, 72 h, read-out: IC50
[32] = NCI-H460, Calcein AM, 72 h, read-out: IC50
[33] = MCF7, Cell Titer-Glo, 72 h, read-out: IC50
[34] = HT-29, MTT, 24 h, read-out: IC50
[35] = NCI-H460, Cell Titer-Glo, 72 h, read-out: IC50
[36] = HCT-116, Cell Titer-Glo, 72 h, read-out: IC50

S=C=NCc1cccc2ccccc12 [Compound 30, 1-(isothiocyanatomethyl)naphthalene]
IC50 [1, 21]: 21.4 µM | IC50 [2, 22]: 13.8 µM | IC50 [3, 23]: 3.22 µM | IC50 ([4]; Calcein AM, read-out: IC50): 8.93 µM | IC50 [5, 24]: 2 µM | IC50 [6, 25]: < 3.13 µM | IC50 [7, 26]: 4.89 µM | IC50 ([8]; Calcein AM, read-out: IC50): 15.2 µM | IC50 [9, 27]: > 20 µM | IC50 [10, 28]: 3.39 µM | IC50 [11, 29]: 9.16 µM | IC50 [12, 30]: 16.8 µM | IC50 [13, 31]: 8.31 µM | IC50 [14, 32]: 12.6 µM | IC50 [15, 33]: 2.27 µM | IC50 [16, 34]: > 50 µM | IC50 ([17]; Cell Titer-Glo, read-out: IC50): 9.71 µM | IC50 ([18]; Cell Titer-Glo, read-out: IC50): 19.8 µM | IC50 [19, 35]: 13.3 µM | IC50 [20, 36]: 4.55 µM

S=C=NCc1ccccc1Br [Compound 25, 1-bromo-2-(isothiocyanatomethyl)benzene]
IC50 [1, 21]: 4.6 µM | IC50 [2, 22]: 11.3 µM | IC50 [3, 23]: 6.32 µM | IC50 ([4]; Calcein AM, read-out: IC50): > 20 µM | IC50 [5, 24]: 6 µM | IC50 [6, 25]: 6.76 µM | IC50 [7, 26]: 5.01 µM | IC50 ([8]; Calcein AM, read-out: IC50): 5.67 µM | IC50 [9, 27]: 19.6 µM | IC50 [10, 28]: 7.11 µM | IC50 [11, 29]: 10.1 µM | IC50 [12, 30]: 8.64 µM | IC50 [13, 31]: 3.99 µM | IC50 [14, 32]: 19.4 µM | IC50 [15, 33]: 2.73 µM | IC50 [16, 34]: 26.9 µM | IC50 ([17]; Cell Titer-Glo, read-out: IC50): 20.1 µM | IC50 ([18]; Cell Titer-Glo, read-out: IC50): 16.3 µM | IC50 [19, 35]: 17.3 µM | IC50 [20, 36]: 3.88 µM

S=C=NCCc1ccccc1 [Compound 38, 1-(2-isothiocyanatoethyl)benzene]
IC50 [1, 21]: 17.7 µM | IC50 [2, 22]: < 12.5 µM | IC50 [3, 23]: 16.7 µM | IC50 ([4]; Calcein AM, read-out: IC50): 10.5 µM | IC50 [5, 24]: 8.66 µM | IC50 [6, 25]: 23.7 µM | IC50 [7, 26]: 13.5 µM | IC50 ([8]; Calcein AM, read-out: IC50): 46.2 µM | IC50 [9, 27]: 12.7 µM | IC50 [10, 28]: 7.2 µM | IC50 [11, 29]: 11.5 µM | IC50 [12, 30]: 10.9 µM | IC50 [13, 31]: 43.1 µM | IC50 [14, 32]: 12.1 µM | IC50 [15, 33]: 13.1 µM | IC50 [16, 34]: 33.2 µM | IC50 ([17]; Cell Titer-Glo, read-out: IC50): 12.1 µM | IC50 ([18]; Cell Titer-Glo, read-out: IC50): 11.1 µM | IC50 [19, 35]: 13.7 µM | IC50 [20, 36]: 10.3 µM

S=C=NCc1cccnc1 [Compound 22, 3-(isothiocyanatomethyl)pyridine]
IC50 [1]: 26 ± 1.15 µM | fold less potent than L-sulforaphane ([1]; NmuMG cells): ~4 fold | IC50 [2]: < 12.5 µM | IC50 ([3]; SK-OV-3, 72 h): 2.6 µM | IC50 [4]: 2.27 µM | IC50 ([5]; SF-268, 72 h): 2.68 µM | IC50 ([6]; MCF7, 72 h): 2.31 µM | IC50 ([7]; SK-OV-3, 72 h): 2.21 µM | IC50 [8]: 3.64 µM | IC50 ([9]; HCT-116, 72 h): 1.26 µM | IC50 ([10]; SF-268, 72 h): 2.46 µM | IC50 ([11]; Homo sapiens): 2.54 µM | fold increase in effectiveness relative to L-sulforaphane ([11]; potency in NCI/ADR RES and selectivity over NmuMG taken together): ~30 fold | IC50 ([12]; DU-145, 72 h): 2.91 µM | IC50 ([13]; DU-145, 72 h): < 1.88 µM | IC50 ([14]; NCI-H460, 72 h): 5.18 µM | IC50 ([15]; MCF7, 72 h): 2.04 µM | IC50 ([16]; HT-29, 24 h): 21.3 µM | IC50 [17]: 1.18 ± 0.06 µM | fold more potent than L-sulforaphane ([17]; NCI/ADR RES cells): ~7.5 fold | fold increase in potency versus 23 ([17]; NCI/ADR RES cells, phenyl replaced by 3-pyridine): ≤ 10 fold | IC50 [18]: 3 µM | IC50 ([19]; NCI-H460, 72 h): 4.51 µM | IC50 ([20]; HCT-116, 72 h): 2.04 ± 0.21 µM

S=C=NCc1ccc(Oc2ccccc2)cc1 [Compound 36, 1-(isothiocyanatomethyl)-4-phenoxybenzene]
IC50 [1, 21]: 187 µM | IC50 [2, 22]: < 12.5 µM | IC50 [3, 23]: 3.93 µM | IC50 ([4]; Calcein AM, read-out: IC50): 3.93 µM | IC50 [5, 24]: 6.17 µM | IC50 [6, 25]: 6.34 µM | IC50 [7, 26]: 3.99 µM | IC50 ([8]; Calcein AM, read-out: IC50): 7.17 µM | IC50 [9, 27]: 4.19 µM | IC50 [10, 28]: 5.06 µM | further fold increase in potency from multiple phenyl rings ([11]; average IC50 compared with single-ring 23 and 38): ~2 fold | IC50 [11, 29]: 4.84 µM | IC50 [12, 30]: 8.24 µM | IC50 [13, 31]: 12.2 µM | IC50 [14, 32]: 4.47 µM | IC50 [15, 33]: 6.16 µM | IC50 [16, 34]: 37.6 µM | IC50 ([17]; Cell Titer-Glo, read-out: IC50): 3.3 µM | IC50 ([18]; Cell Titer-Glo, read-out: IC50): 3.95 µM | IC50 [19, 35]: 9.12 µM | IC50 [20, 36]: 3.55 µM

S=C=NCC1CCCCC1 [Compound 18, (isothiocyanatomethyl)cyclohexane]
IC50 [1, 21]: 14.8 µM | IC50 [2, 22]: 22.5 µM | IC50 [3, 23]: 29.1 µM | IC50 ([4]; Calcein AM, read-out: IC50): > 50 µM | IC50 [5, 24]: 15.1 µM | IC50 [6, 25]: > 30 µM | IC50 [7, 26]: 33.7 µM | IC50 ([8]; Calcein AM, read-out: IC50): 42.1 µM | IC50 [9, 27]: 21.9 µM | IC50 [10, 28]: 15.4 µM | Cancerous Average IC50 / Average IC50 in Cancer Cell Lines [11, 29]: 29.31^d μM | IC50 [11, 29]: 29.3 µM | IC50 [12, 30]: 24.4 µM | IC50 [13, 31]: 18.7 µM | IC50 [14, 32]: 48.1 µM | IC50 [15, 33]: 33.3 µM | IC50 [16, 34]: > 50 µM | IC50 ([17]; Cell Titer-Glo, read-out: IC50): > 50 µM | IC50 ([18]; Cell Titer-Glo, read-out: IC50): 29.3 µM | IC50 [19, 35]: > 50 µM | IC50 [20, 36]: 20.9 µM
